Read-outs that look alike come from different tables or passages of the source.
Experiments:
B-16 melanoma cells = assay: Evaluation of melanin production-inhibitory function (degree of whiteness of cultured cells); type: cell-based; on Evaluation of Melanin Production-Inhibition (degree of whiteness of cells): key: ++: The degree of whiteness is higher than that observed for the positive control; +: The degree of whiteness is almost identical to that of the positive control; ±: The degree of whiteness is not higher than that observed for the positive control, but higher than that observed for control; −: The degree of whiteness is almost identical to that observed for the control
Source text: The melanin production-inhibitory function of the 5-membered ring-containing triterpenes incorporated into the foods or beverages and orally administered whitening agents of the present invention can be determined by a test method, which makes use of cultured melanocytes. The term “melanocyte(s)” used herein means cells having an ability of producing melanin and when cultivating these cells in the usual manner, the cells are blackened due to the accumulation of melanin pigment thus produced. Contrary to this, if a substance having such a melanin production-inhibitory function is incorporated into this cultivation system, the melanin production is suppressed and the skin is relatively whitened. The melanin production-inhibitory function can likewise be evaluated on the basis of this degree of relative whitening.
A culture medium (2 mL/well) was dispensed to a 6-well plate, a predetermined amount of B-16 melanoma cells was inoculated into the culture medium in each well and the cells were cultured at 37° C. and 5% CO2 by allowing the culture medium to stand. On the next day, a solution of test sample (each 5-membered ring-containing triterpene to be evaluated) having a predetermined concentration was added to and mixed with the culture medium and the cultivation was continued. On the 5th day from the initiation of the cultivation, the culture medium was exchanged and the test sample solution was again added to each well. On the next day, the culture medium was removed from each well to thus recover the cells, followed by washing the cells with PBS (phosphate-buffered physiological saline) and evaluation of the desired function based on the degree of whiteness of the cells. In this connection, the melanin production-inhibitory effect was evaluated by comparing the resulting degree of whiteness with that observed when 450 ppm of vitamin C-magnesium phosphate having a known effect was added instead of the test sample solution (positive control) and that observed when any test sample was not added (control) according to the following criteria.
The evaluation criteria for the degree of whiteness of cells are as follows: […]

[1] = tested on: deposition of melanin pigment on the skin induced by the UV light irradiation; assay: Animal test for the confirmation of whitening effect (UV-induced skin pigmentation, test feed); type: in vivo, Brown guinea pigs; conditions: free ingestion, 4 weeks; for Evaluation Results CI: number of 7 animals ranked Conspicuous Imp.; for Evaluation Results MI: number of 7 animals ranked Medium Imp.; for Evaluation Results NC: number of 7 animals ranked No Change; for Evaluation Results SI: number of 7 animals ranked Slight Imp.
Source text: More specifically, the whitening effect can be evaluated by removing a half of the hair on the back of each brown guinea pig, keeping these animals over 2 weeks while irradiating the hair-removed area with a UV lamp, dividing these guinea pigs into groups in such a manner that there is not any difference in the degree of the melanin pigmentation induced by the UN light irradiation, allowing the animals in each group to freely take a test food comprising a feed having a low vitamin C content to which a variety of triterpenes have been added and keeping these animals over additional 4 weeks to evaluate the degree of skin pigmentation while comparing the same with those observed for a control group and for a positive control group.
Brown guinea pigs (5-week-old male animals) were preliminarily kept for one week using a commercially available feed (CG-7 available from Nippon Kurea Company), a half of the hair on the back was removed and the hair-removed portion on the back was irradiated with light rays emitted from a UV lamp of 1.2 mW for 5 minutes on the 1st day and then with light rays emitted from a UV lamp of 1.0 mW for 5 minutes on the 2nd and 3rd days. Subsequently, these animals were kept over 2 weeks using a feed having a low vitamin C content (200.0 mg/kg feed), these guinea pigs were divided into 12 groups (comprising 7 animals each) in such a manner that there was not observed any difference in the degree of deposition of melanin pigment on the skin induced by the UV light irradiation between groups and then the animals were allowed to freely ingest each test feed comprising the feed having a low vitamin C content to which each triterpene had been added in an amount specified in the following Table 2. In this respect, however, the vitamin C-deficient feed per se was supplied to the control group and a vitamin C-supplemented feed was supplied to the positive control group. After 4 weeks from the supply of the test feed, the degree of the pigmentation of the skin was evaluated according to the following criteria.

[2] = Concentration 2 ppm, rank vs 450 ppm vitamin C-magnesium phosphate
[3] = Concentration 4 ppm, rank vs 450 ppm vitamin C-magnesium phosphate
[4] = Concentration 6 ppm, rank vs 450 ppm vitamin C-magnesium phosphate
[5] = Concentration 8 ppm, rank vs 450 ppm vitamin C-magnesium phosphate
[6] = Concentration 10 ppm, rank vs 450 ppm vitamin C-magnesium phosphate
[7] = compared with 450 ppm of vitamin C-magnesium phosphate

| SMILES | Evaluation of Melanin Production-Inhibition (degree of whiteness of cells) (B-16 melanoma cells; [2]) | Evaluation of Melanin Production-Inhibition (degree of whiteness of cells) (B-16 melanoma cells; [3]) | Evaluation of Melanin Production-Inhibition (degree of whiteness of cells) (B-16 melanoma cells; [4]) | Evaluation of Melanin Production-Inhibition (degree of whiteness of cells) (B-16 melanoma cells; [5]) | Evaluation of Melanin Production-Inhibition (degree of whiteness of cells) (B-16 melanoma cells; [6]) | Evaluation of Melanin Production-Inhibition (degree of whiteness of cells) (B-16 melanoma cells; Concentration 15 ppm, rank vs 450 ppm vitamin C-magnesium phosphate) | melanin production-inhibitory function relative to that observed for the positive control/standard (B-16 melanoma cells; [7]) | Evaluation Results CI ([1]; 500.0 mg/kg feed) | Evaluation Results MI ([1]; 500.0 mg/kg feed) | Evaluation Results NC ([1]; 500.0 mg/kg feed) | Evaluation Results SI ([1]; 500.0 mg/kg feed) | Evaluation of Melanin Production-Inhibition (degree of whiteness of cells) (B-16 melanoma cells) | melanin production-inhibitory function relative to that observed for the positive control/standard (B-16 melanoma cells) | Evaluation Results CI ([1]; 500.0 mg/kg feed, 500 mg/kg) | Evaluation Results SI ([1]; 500.0 mg/kg feed, 500 mg/kg) | concentration at which the function is identical to that observed for 450 ppm of the positive control (B-16 melanoma cells) | Evaluation Results CI ([1]; 250.0 mg/kg feed) | Evaluation Results MI ([1]; 250.0 mg/kg feed) | Evaluation Results NC ([1]; 250.0 mg/kg feed) | Evaluation Results SI ([1]; 250.0 mg/kg feed) |
| --- | --- | --- | --- | --- | --- | --- | --- | --- | --- | --- | --- | --- | --- | --- | --- | --- | --- | --- | --- | --- |
| CC(=O)O[C@@H]1C[C@]2(C)[C@H]3CC=C4[C@@H]5CC(C)(C)CC[C@]5(C(=O)O)CC[C@@]4(C)[C@]3(C)CC[C@H]2C(C)(C)[C@H]1OC(C)=O [Compound of Synthetic Example 2, 2,3-O-di-Acetyl-Maslinic Acid] | ± | ± | + | ++ | ++ | ++ | about 75 times | 2 | 4 | 0 | 1 |  |  |  |  |  |  |  |  |  |
| C=C(C)[C@@H]1CC[C@]2(CO)CC[C@]3(C)[C@H](CC[C@@H]4[C@@]5(C)CC[C@H](O)C(C)(C)[C@@H]5CC[C@]43C)[C@@H]12 [Betulin] | − |  | ± |  | ± |  | about 40 times | 1 | 3 | 1 | 2 |  |  |  |  |  |  |  |  |  |
| C[C@H]1[C@H](C)CC[C@]2(C(=O)O)CC[C@]3(C)C(=CC[C@@H]4[C@@]5(C)CC[C@H](O)C(C)(C)[C@@H]5CC[C@]43C)[C@H]12 [Ursolic acid] | ± | + | ++ | ++ | ++ |  | about 110 times | 4 | 2 | 0 | 1 |  |  |  |  |  |  |  |  |  |
| CC1(C)CC[C@]2(C(=O)O)CC[C@]3(C)C(=CC[C@@H]4[C@@]5(C)C[C@@H](O)[C@H](O)C(C)(C)[C@@H]5CC[C@]43C)[C@@H]2C1 [Purified maslinic acid 2, maslinic acid] |  |  |  |  |  |  |  |  | 3 | 0 |  | ± and + and ++ | about 110 times | 3 | 1 |  |  |  |  |  |
| C[C@H]1[C@H](C)CC[C@]2(CO)CC[C@]3(C)C(=CC[C@@H]4[C@@]5(C)CC[C@H](O)C(C)(C)[C@@H]5CC[C@]43C)[C@H]12 [Uvaol] | − |  | − |  | + |  | about 40 times | 1 | 4 | 1 | 1 |  |  |  |  |  |  |  |  |  |
| CC1(C)CC[C@]2(C(=O)O)CC[C@]3(C)C(=CC[C@@H]4[C@@]5(C)C[C@@H](O)[C@H](O)C(C)(C)[C@@H]5CC[C@]43C)[C@@H]2C1 [Purified maslinic acid 1, maslinic acid] |  |  |  |  |  |  |  |  | 3 | 0 |  | ± and + and ++ | about 110 times | 4 | 0 | 4 ppm | 2 | 3 | 0 | 2 |

— patent US20040086553A1, “Foods and beverages for whitening and orally administered whitening agents” (The Nisshin OilliO, Ltd., priority 2000, published 2004)
